Here are results for two compounds from patent US9248131B2, “Aquaporin modulators and methods of using them for the treatment of edema and fluid imbalance” (THE ARIZONA BOARD OF REGENTS ON BEHALF OF THE UNIVERSITY OF …, priority 2006, dated 2016).

SMILES strings stand for the structures.

One assay addresses T1, AQP4 (Homo sapiens, UniProt P55087).
T1 construct: expressed in transfected cells; host or cells: Xenopus oocytes
Kind of assay: Oocyte swelling assay: water permeability (Pf) of AQP4-expressing oocytes by videomicroscopy, block or % stimulation. Format: cell-based. As to conditions: concentrations up to 1 mM. The source says:
A method for screening compounds for their ability to modulate aquaporin activity based on a water permeability assay in Xenopus oocytes expressing aquaporins which is used to identify, assess, and characterize compounds that either block or stimulate the aquaporin channels including AQP1, AQP4 and AQP9 channels.
Selection rationale and methodology. The ability of compounds, analogs and/or agents to block an aquaporin channel was quantified by videomicroscopic analyses of cross-sectional area of AQP-expressing oocytes as a function of time in a defined osmotic gradient, allowing the calculation of the water permeability factor (Pf), statistical evaluation of significant differences in the rate of water entry, and definition of dose response curves with IC50 values (concentration required for half-maximal block).
This compound evaluation method has been utilized with AQP1,-4,-5, and -9 channels. Observations of channel stimulation were made using the same assay method, however, the results were reported as % stimulation over control at a given concentration. […] TEA is known as a blocker of K^+ channel subtypes and nicotinic acetylcholine receptors. TEA sensitivity of AQP1 was removed by site-directed mutagenesis of tyrosine 186 to phenylalanine (Y186F) in the outer vestibule of the water pore, and confirmed that the inhibitory action of TEA is not due to nonspecific effects on endogenous channels (Brooks et al., 2000).

Assay [1] deals with Na—K—Cl cotransporter (NKCC1). As to conditions: perfused kidney ascending loops of Henle; read-out: IC50 against Na—K—Cl cotransporter; cited from earlier work.
Assay [2] has as its system astrocytes expressing AQP4. As to conditions: cited from earlier work.

T1 sequence (P55087 whole entry, species assumed): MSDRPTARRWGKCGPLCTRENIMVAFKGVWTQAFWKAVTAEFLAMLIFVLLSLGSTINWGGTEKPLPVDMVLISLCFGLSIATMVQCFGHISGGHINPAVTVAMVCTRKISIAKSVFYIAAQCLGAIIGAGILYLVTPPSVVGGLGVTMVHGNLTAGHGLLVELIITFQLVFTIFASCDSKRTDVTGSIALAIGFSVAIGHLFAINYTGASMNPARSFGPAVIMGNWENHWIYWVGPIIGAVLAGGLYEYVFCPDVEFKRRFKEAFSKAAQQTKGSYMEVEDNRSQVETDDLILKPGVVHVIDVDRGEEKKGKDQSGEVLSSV

For the compound `Cc1cccc(Nc2ccncc2S(=O)(=O)NC(=O)NC(C)C)c1` [torsemide, reference compound], on AQP4, the “block of swelling in AQP4-expressing oocytes” value is recorded as “no blocking effect”. The IC50 (commonly the concentration at which inhibition is half-maximal) in assay [1] is 300 nM.
For `[Pb]` [lead], in assay [2], the “increase in water permeability (Pf)” value is 40%.
